Assay results from US12371454B2, “Cyclic peptide compound having Kras inhibitory action” (priority 2019, dated 2025).
Positions of bridges follow the written chain, without caps; N, C: chain ends. Non-standard residues stand in square brackets, D forms with d. Residues, ends and D or L forms follow the SMILES beside them. *: point of attachment. hPhe(3-Cl-4-CF3) = N[C@@H](CCc1ccc(C(F)(F)F)c(Cl)c1)C(=O)O; hPhe(3-F,4-CF3) = N[C@@H](CCc1ccc(C(F)(F)F)c(F)c1)C(=O)O; 3Oxa8azabicyclo(3.2.1)octane = C1CC2COCC1N2*; NMePhe(4-Cl) = CN[C@@H](Cc1ccc(Cl)cc1)C(=O)O; NMePhe(4-Me) = CN[C@@H](Cc1ccc(C)cc1)C(=O)O; NMePhe(4-I) = CN[C@@H](Cc1ccc(I)cc1)C(=O)O; NMeGly(cPent) = CN[C@H](C(=O)O)C1CCCC1; NMe3Pal = CN[C@@H](Cc1cccnc1)C(=O)O; NMeGly(cBu) = CN[C@H](C(=O)O)C1CCC1; NMeCha = CN[C@@H](CC1CCCCC1)C(=O)O; NMeChg = CN[C@H](C(=O)O)C1CCCCC1; NMeI = CC[C@H](C)[C@H](NC)C(=O)O; NMeD = CN[C@@H](CC(=O)O)C(=O)O; NMeHpra = C#CCC[C@H](NC)C(=O)O; NMeL = CN[C@@H](CC(C)C)C(=O)O; NEtAla = CCN[C@@H](C)C(=O)O; NMeNva = CCC[C@H](NC)C(=O)O; NMeV = CN[C@H](C(=O)O)C(C)C; d(β3hA) = C[C@@H](N)CC(=O)O; NMeS = CN[C@@H](CO)C(=O)O; NMeA = CN[C@@H](C)C(=O)O; Piperidide = C1CCN(*)CC1; Ac5c = NC1(C(=O)O)CCCC1; Aze = O=C(O)[C@@H]1CCN1; Sar = CNCC(=O)O; Propyl = CCC*

Tested on: Human pancreatic cancer cell line AsPC-1
Test: Measurement of AsPC-1 cell growth inhibition (AsPC-1 CGI)
Format: cell-based
Conditions: 96 h
Outline: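 AsPC-1 cells in 15% FBS RPMI-1640 were exposed to test compound for 96 hours at 37° C, with CellTiter-Glo as endpoint.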

Row | Structure (SMILES) | IC50
1 | C#CCC[C@H]1C(=O)N[C@@H]([C@@H](C)CC)C(=O)N(C)[C@@H](C)C(=O)N2CC[C@H]2C(=O)N(C)[C@@H](Cc2ccc(I)cc2)C(=O)N(C)CC(=O)N[C@@H](CCc2ccc(C(F)(F)F)c(Cl)c2)C(=O)N2CCC[C@H]2C(=O)NC2(CCCC2)C(=O)N(C)[C@@H](C2CCCCC2)C(=O)N[C@H](C)CC(=O)N1C [Compound 971] (cyclo([Ac5c][NMeChg][d(β3hA)][NMeHpra]I[NMeA][Aze][NMePhe(4-I)][Sar][hPhe(3-Cl-4-CF3)]P)) | 100 to 500 nM
2 | CCC[C@H]1C(=O)N(C)[C@H](C(=O)N2CCCCC2)CC(=O)N(C)[C@@H](CC(C)C)C(=O)N[C@@H]([C@@H](C)CC)C(=O)N(C)[C@@H](C)C(=O)N2CC[C@H]2C(=O)N(C)[C@@H](CC2CCCCC2)C(=O)N(C)CC(=O)N[C@@H](CCc2ccc(C(F)(F)F)c(Cl)c2)C(=O)N2CCC[C@H]2C(=O)NC2(CCCC2)C(=O)N1C [Compound 995] ([NMeL]I[NMeA][Aze][NMeCha][Sar][hPhe(3-Cl-4-CF3)]P[Ac5c][NMeNva][NMeD]-Piperidide; lactam N-11) | 100 to 500 nM
3 | CC[C@H](C)[C@@H]1NC(=O)[C@H](CC(C)C)N(C)C(=O)C[C@@H](C(=O)N2C3CCC2COC3)N(C)C(=O)[C@H]([C@@H](C)CC)N(C)C(=O)C2(CCCC2)NC(=O)[C@@H]2CCCN2C(=O)[C@H](CCc2ccc(C(F)(F)F)c(Cl)c2)NC(=O)CN(C)C(=O)[C@H](C2CCCC2)N(C)C(=O)[C@@H]2CCN2C(=O)[C@H](C)N(C)C1=O [Compound 1002] ([NMeL]I[NMeA][Aze][NMeGly(cPent)][Sar][hPhe(3-Cl-4-CF3)]P[Ac5c][NMeI][NMeD]-{3Oxa8azabicyclo(3.2.1)octane}; lactam N-11) | 20 to 50 nM
4 | CCC[C@H]1C(=O)NC2(CCCC2)C(=O)N(C)[C@@H](C2CCCCC2)C(=O)N(C)[C@H](C(=O)N2CCCCC2)CC(=O)N(C)[C@@H](CC(C)C)C(=O)N[C@@H]([C@@H](C)CC)C(=O)N(C)CC(=O)N(C)CC(=O)N(C)[C@@H](CC2CCCCC2)C(=O)N(C)CC(=O)N[C@@H](CCc2ccc(C(F)(F)F)c(Cl)c2)C(=O)N1C [Compound 1005] ([NMeL]I[Sar][Sar][NMeCha][Sar][hPhe(3-Cl-4-CF3)][NMeNva][Ac5c][NMeChg][NMeD]-Piperidide; lactam N-11) | 100 to 500 nM
5 | CC[C@H](C)[C@@H]1NC(=O)[C@H](CC(C)C)N(C)C(=O)C[C@@H](C(=O)N2CCCCC2)N(C)C(=O)[C@H](C2CCCC2)N(C)C(=O)C2(CCCC2)NC(=O)[C@@H]2CCCN2C(=O)[C@H](CCc2ccc(C(F)(F)F)c(F)c2)NC(=O)CN(C)C(=O)[C@H](Cc2ccc(C)cc2)N(C)C(=O)[C@@H]2CCN2C(=O)[C@H](C)N(C)C1=O [Compound 1008] ([NMeL]I[NMeA][Aze][NMePhe(4-Me)][Sar][hPhe(3-F,4-CF3)]P[Ac5c][NMeGly(cPent)][NMeD]-Piperidide; lactam N-11) | 20 to 50 nM
6 | CC[C@H](C)[C@@H]1NC(=O)[C@H](C)N(C)C(=O)C[C@@H](C(=O)N2CCCCC2)N(C)C(=O)[C@H](C2CCCCC2)N(C)C(=O)C2(CCCC2)NC(=O)[C@H](Cc2cccnc2)N(C)C(=O)[C@H](CCc2ccc(C(F)(F)F)c(Cl)c2)NC(=O)CN(C)C(=O)[C@H](CC2CCCCC2)N(C)C(=O)CN(C)C(=O)CN(C)C1=O [Compound 1012] ([NMeA]I[Sar][Sar][NMeCha][Sar][hPhe(3-Cl-4-CF3)][NMe3Pal][Ac5c][NMeChg][NMeD]-Piperidide; lactam N-11) | 100 to 500 nM
7 | CC[C@H](C)[C@@H]1NC(=O)[C@H](C(C)C)N(C)C(=O)C[C@@H](C)NC(=O)[C@H](CC(C)C)N(C)C(=O)C2(CCCC2)NC(=O)[C@H](CC(C)C)N(C)C(=O)[C@H](CCc2ccc(C(F)(F)F)c(Cl)c2)NC(=O)CN(C)C(=O)[C@H](Cc2ccc(Cl)cc2)N(C)C(=O)CN(C)C(=O)CN(C)C1=O [Compound 1014] (cyclo([Ac5c][NMeL][d(β3hA)][NMeV]I[Sar][Sar][NMePhe(4-Cl)][Sar][hPhe(3-Cl-4-CF3)][NMeL])) | 100 to 500 nM
8 | CC[C@H](C)[C@@H]1NC(=O)[C@H](CC(C)C)N(C)C(=O)C[C@@H](C)NC(=O)[C@H](C(C)C)N(C)C(=O)C2(CCCC2)NC(=O)[C@@H]2CCCN2C(=O)[C@H](CCc2ccc(C(F)(F)F)c(Cl)c2)NC(=O)CN(C)C(=O)[C@H](Cc2ccc(Cl)cc2)N(C)C(=O)[C@@H]2CCN2C(=O)[C@H](C)N(C)C1=O [Compound 1018] (cyclo([Ac5c][NMeV][d(β3hA)][NMeL]I[NMeA][Aze][NMePhe(4-Cl)][Sar][hPhe(3-Cl-4-CF3)]P)) | 100 to 500 nM
9 | CC[C@H](C)[C@@H]1NC(=O)[C@H](CC(C)C)N(C)C(=O)C[C@@H](C)NC(=O)[C@H](C2CCCC2)N(C)C(=O)C2(CCCC2)NC(=O)[C@@H]2CCCN2C(=O)[C@H](CCc2ccc(C(F)(F)F)c(Cl)c2)NC(=O)CN(C)C(=O)[C@H](Cc2ccc(C)cc2)N(C)C(=O)[C@@H]2CCN2C(=O)[C@H](C)N(CC)C1=O [Compound 1023] (cyclo([Ac5c][NMeGly(cPent)][d(β3hA)][NMeL]I[NEtAla][Aze][NMePhe(4-Me)][Sar][hPhe(3-Cl-4-CF3)]P)) | 50 to 100 nM
10 | CCCOC[C@H]1C(=O)N(C)CC(=O)N[C@@H](CCc2ccc(C(F)(F)F)c(F)c2)C(=O)N2CCC[C@H]2C(=O)NC2(CCCC2)C(=O)N(C)[C@@H](C2CCCC2)C(=O)N(C)[C@H](C(=O)N2CCCCC2)CC(=O)N(C)[C@@H](CC(C)C)C(=O)N[C@@H]([C@@H](C)CC)C(=O)N(C)[C@@H](C)C(=O)N2CC[C@H]2C(=O)N1C [Compound 1029] ([NMeL]I[NMeA][Aze][NMeS](Propyl)[Sar][hPhe(3-F,4-CF3)]P[Ac5c][NMeGly(cPent)][NMeD]-Piperidide; lactam N-11) | 20 to 50 nM
11 | CCCOC[C@H]1C(=O)N(C)CC(=O)N[C@@H](CCc2ccc(C(F)(F)F)c(F)c2)C(=O)N2CCC[C@H]2C(=O)NC2(CCCC2)C(=O)N(C)[C@@H](C2CCCC2)C(=O)N(C)[C@H](C(=O)N2C3CCC2COC3)CC(=O)N(C)[C@@H](CC(C)C)C(=O)N[C@@H]([C@@H](C)CC)C(=O)N(C)[C@@H](C)C(=O)N2CC[C@H]2C(=O)N1C [Compound 1030] ([NMeL]I[NMeA][Aze][NMeS](Propyl)[Sar][hPhe(3-F,4-CF3)]P[Ac5c][NMeGly(cPent)][NMeD]-{3Oxa8azabicyclo(3.2.1)octane}; lactam N-11) | 20 to 50 nM
12 | CC[C@H](C)[C@@H]1NC(=O)[C@H](C2CCC2)N(C)C(=O)C[C@@H](C(=O)N2CCCCC2)N(C)C(=O)[C@H](C(C)C)N(C)C(=O)C2(CCCC2)NC(=O)[C@@H]2CCCN2C(=O)[C@H](CCc2ccc(C(F)(F)F)c(Cl)c2)NC(=O)CN(C)C(=O)[C@H](CC2CCCCC2)N(C)C(=O)[C@@H]2CCN2C(=O)[C@H](C)N(C)C1=O [Compound 1036] ([NMeGly(cBu)]I[NMeA][Aze][NMeCha][Sar][hPhe(3-Cl-4-CF3)]P[Ac5c][NMeV][NMeD]-Piperidide; lactam N-11) | 100 to 500 nM
13 | CC[C@H](C)[C@@H]1NC(=O)[C@H](CC(C)C)N(C)C(=O)C[C@@H](C(=O)N2CCCCC2)N(C)C(=O)[C@H](C(C)C)N(C)C(=O)C2(CCCC2)NC(=O)[C@@H]2CCCN2C(=O)[C@H](CCc2ccc(C(F)(F)F)c(F)c2)NC(=O)CN(C)C(=O)[C@H](CC2CCCCC2)N(C)C(=O)[C@@H]2CCN2C(=O)[C@H](C)N(C)C1=O [Compound 1040] ([NMeL]I[NMeA][Aze][NMeCha][Sar][hPhe(3-F,4-CF3)]P[Ac5c][NMeV][NMeD]-Piperidide; lactam N-11) | 100 to 500 nM
